Patent US6340680B1, “Oxazinoquinolones useful for the treatment of viral infections” (Pharmacia and Upjohn Company, priority 1999, dated 2002)
pIC50: −log10 of the molar value.

How the values were obtained:
Assay type in all cases: biochemical
HCMV polymerase = biological target: T1, HCMV polymerase (Human cytomegalovirus, UniProt P08546); assay: HCMV polymerase assay (scintillation proximity assay, modified version); conditions: modified SPA assay, compounds diluted in 100% DMSO, 4.5 mM DTT
T1 construct: made in house; host or cells: recombinant baculovirus-infected SF-9 cells
T1 sequence (P08546 whole entry): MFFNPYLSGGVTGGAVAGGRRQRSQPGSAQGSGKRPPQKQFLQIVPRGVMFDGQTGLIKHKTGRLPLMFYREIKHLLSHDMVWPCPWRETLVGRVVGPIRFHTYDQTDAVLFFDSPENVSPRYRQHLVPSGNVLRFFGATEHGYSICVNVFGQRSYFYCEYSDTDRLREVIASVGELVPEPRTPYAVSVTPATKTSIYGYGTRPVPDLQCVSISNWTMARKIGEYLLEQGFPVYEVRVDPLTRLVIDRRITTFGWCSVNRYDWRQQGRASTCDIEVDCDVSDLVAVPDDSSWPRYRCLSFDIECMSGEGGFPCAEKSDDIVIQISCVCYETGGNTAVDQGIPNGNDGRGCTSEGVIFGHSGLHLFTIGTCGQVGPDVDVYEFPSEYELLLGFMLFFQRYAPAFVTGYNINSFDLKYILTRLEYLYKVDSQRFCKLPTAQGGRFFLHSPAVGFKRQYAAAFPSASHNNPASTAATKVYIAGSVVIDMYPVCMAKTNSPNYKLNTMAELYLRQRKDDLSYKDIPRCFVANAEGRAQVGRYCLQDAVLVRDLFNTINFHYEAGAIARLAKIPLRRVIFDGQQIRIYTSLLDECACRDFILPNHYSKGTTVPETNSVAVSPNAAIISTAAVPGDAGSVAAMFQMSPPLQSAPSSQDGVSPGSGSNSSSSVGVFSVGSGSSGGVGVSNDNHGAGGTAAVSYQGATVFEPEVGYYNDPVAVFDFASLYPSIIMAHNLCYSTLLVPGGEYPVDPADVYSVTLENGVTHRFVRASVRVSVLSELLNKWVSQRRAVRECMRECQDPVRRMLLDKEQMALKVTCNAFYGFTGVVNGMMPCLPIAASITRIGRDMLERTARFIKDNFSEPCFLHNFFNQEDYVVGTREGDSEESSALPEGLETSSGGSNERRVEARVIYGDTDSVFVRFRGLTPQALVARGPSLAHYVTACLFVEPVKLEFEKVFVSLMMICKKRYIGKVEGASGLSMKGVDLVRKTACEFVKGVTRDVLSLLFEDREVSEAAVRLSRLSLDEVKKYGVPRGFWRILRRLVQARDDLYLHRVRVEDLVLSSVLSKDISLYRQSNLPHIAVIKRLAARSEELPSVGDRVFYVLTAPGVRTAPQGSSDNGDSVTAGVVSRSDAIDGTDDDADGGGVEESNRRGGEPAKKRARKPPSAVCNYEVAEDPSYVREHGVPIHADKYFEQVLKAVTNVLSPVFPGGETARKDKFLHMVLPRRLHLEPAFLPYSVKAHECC
Experimental: (§1) The HCMV polymerase assay is performed using a scintillation proximity assay (SPA) as described in several references, such as N. D. Cook, et al., Pharmaceutical Manufacturing International, pages 49-53 (1992); K. Takeuchi, Laboratory Practice, September issue (1992); U.S. Pat. No. 4,568,649 (1986); which are incorporated by reference herein. Reactions are performed in 96-well plates. The assay is conducted in 100 μl volume with 5.4 mM HEPES (pH 7.5), 11.7 mM KCl, 4.5 mM MgCl2, 0.36 mg/ml BSA, and 90 nM ^3H-dTTP. Assays are run with and without CHAPS, (3-[(3-Cholamidopropyl)-dimethylammonio]-1-propane-sulfonate) at a final concentration of 2 mM. HCMV polymerase is diluted in enzyme dilution buffer containing 50% glycerol, 250 mM NaCl, 10 mM HEPES (pH 7.5), 100 μg/ml BSA, and 0.01% sodium azide. The HCMV polymerase, which is expressed in recombinant baculovirus-infected SF-9 cells and purified according to literature procedures, is added at 10% (or 10 μl) of the final reaction volume, i.e., 100 μl. Compounds are diluted in 50% DMSO and 10 μl are added to each well. Control wells contain an equivalent concentration of DMSO. Unless noted otherwise, reactions are initiated via the addition of 6 nM biotinylated poly(dA)-oligo(dT) template/primer to reaction mixtures containing the enzyme, substrate, and compounds of interest. Plates are incubated in a 25 C or 37 C H2O bath and terminated via the addition of 40 μl/reaction of 0.5 M EDTA (pH 8) per well. Reactions are terminated within the time-frame during which substrate incorporation is linear and varied depending upon the enzyme and conditions used, i.e., 30 min. for HCMV polymerase. Ten μl of streptavidin-SPA beads (20 mg/ml in PBS/10% glycerol) are added following termination of the reaction. Plates are incubated 10 min. at 37 C, then equilibrated to room temperature, and counted on a Packard Topcount. Linear regressions are performed and IC50's are calculated using computer software.
A modified version of the above HCMV polymerase assay is performed as described above, but with the following changes: Compounds are diluted in 100% DMSO until final dilution into assay buffer. In the previous assay, compounds are diluted in 50% DMSO. 4.5 mM dithiotherotol (DTT) is added to the polymerase buffer. […] Other viral polymerase assays are performed using procedures similar to those described above.

HSV polymerase = HSV polymerase (Human herpesvirus 1, UniProt P04293); assay: HSV polymerase assay (similar procedure)
Sequence of HSV polymerase (P04293 whole entry): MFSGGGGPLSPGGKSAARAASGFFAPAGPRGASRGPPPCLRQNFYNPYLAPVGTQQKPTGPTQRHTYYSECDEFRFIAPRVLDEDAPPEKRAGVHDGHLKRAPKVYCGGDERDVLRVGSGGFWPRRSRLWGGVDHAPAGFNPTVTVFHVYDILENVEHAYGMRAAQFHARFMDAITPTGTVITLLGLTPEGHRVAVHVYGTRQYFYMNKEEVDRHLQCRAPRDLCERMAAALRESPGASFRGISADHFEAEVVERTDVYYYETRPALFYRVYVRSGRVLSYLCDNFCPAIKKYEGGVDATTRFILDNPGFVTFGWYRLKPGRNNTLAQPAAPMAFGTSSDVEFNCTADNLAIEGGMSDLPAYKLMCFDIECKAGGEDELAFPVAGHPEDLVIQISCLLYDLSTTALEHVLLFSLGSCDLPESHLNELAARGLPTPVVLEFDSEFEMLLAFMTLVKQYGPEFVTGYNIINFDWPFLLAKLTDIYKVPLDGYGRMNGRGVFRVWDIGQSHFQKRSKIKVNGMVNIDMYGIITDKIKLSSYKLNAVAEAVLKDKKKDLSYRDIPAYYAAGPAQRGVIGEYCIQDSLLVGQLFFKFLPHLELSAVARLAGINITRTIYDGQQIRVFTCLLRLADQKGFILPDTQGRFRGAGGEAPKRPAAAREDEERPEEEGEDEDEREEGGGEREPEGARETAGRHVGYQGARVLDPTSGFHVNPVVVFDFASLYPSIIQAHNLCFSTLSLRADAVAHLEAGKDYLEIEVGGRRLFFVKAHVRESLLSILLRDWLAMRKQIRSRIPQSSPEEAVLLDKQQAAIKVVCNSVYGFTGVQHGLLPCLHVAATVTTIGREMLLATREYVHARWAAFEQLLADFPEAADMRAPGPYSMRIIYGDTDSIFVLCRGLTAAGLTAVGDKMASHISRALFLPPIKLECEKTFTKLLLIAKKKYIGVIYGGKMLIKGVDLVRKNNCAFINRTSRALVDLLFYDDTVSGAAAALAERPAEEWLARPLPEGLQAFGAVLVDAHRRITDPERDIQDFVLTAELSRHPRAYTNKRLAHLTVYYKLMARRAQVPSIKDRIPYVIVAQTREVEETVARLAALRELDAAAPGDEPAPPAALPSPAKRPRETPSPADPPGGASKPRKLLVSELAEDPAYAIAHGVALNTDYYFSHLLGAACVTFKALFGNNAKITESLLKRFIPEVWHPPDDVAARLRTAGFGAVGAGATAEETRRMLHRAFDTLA
Experimental: as §1, with “Unless noted otherwise, reactions are initiated via the addition of 6 nM biotinylated poly(dA)-oligo(dT) template/primer to reaction mixtures containing the enzyme, substrate, and compounds of interest. Plates are incubated in a 25 C or 37 C H2O bath and terminated via the addition of 40 μl/reaction of 0.5 M EDTA (pH 8) per well. Reactions are terminated within the time-frame during which substrate incorporation is linear and varied depending upon the enzyme and conditions used, i.e., 30 min. for HCMV polymerase. Ten μl of streptavidin-SPA beads (20 mg/ml in PBS/10% glycerol) are added following termination of the reaction.” left out, “software. […]” for “software.”

VZV polymerase = VZV polymerase (Varicella-zoster virus, UniProt P09252); assay: VZV polymerase assay (similar procedure)
Sequence of VZV polymerase (P09252 whole entry): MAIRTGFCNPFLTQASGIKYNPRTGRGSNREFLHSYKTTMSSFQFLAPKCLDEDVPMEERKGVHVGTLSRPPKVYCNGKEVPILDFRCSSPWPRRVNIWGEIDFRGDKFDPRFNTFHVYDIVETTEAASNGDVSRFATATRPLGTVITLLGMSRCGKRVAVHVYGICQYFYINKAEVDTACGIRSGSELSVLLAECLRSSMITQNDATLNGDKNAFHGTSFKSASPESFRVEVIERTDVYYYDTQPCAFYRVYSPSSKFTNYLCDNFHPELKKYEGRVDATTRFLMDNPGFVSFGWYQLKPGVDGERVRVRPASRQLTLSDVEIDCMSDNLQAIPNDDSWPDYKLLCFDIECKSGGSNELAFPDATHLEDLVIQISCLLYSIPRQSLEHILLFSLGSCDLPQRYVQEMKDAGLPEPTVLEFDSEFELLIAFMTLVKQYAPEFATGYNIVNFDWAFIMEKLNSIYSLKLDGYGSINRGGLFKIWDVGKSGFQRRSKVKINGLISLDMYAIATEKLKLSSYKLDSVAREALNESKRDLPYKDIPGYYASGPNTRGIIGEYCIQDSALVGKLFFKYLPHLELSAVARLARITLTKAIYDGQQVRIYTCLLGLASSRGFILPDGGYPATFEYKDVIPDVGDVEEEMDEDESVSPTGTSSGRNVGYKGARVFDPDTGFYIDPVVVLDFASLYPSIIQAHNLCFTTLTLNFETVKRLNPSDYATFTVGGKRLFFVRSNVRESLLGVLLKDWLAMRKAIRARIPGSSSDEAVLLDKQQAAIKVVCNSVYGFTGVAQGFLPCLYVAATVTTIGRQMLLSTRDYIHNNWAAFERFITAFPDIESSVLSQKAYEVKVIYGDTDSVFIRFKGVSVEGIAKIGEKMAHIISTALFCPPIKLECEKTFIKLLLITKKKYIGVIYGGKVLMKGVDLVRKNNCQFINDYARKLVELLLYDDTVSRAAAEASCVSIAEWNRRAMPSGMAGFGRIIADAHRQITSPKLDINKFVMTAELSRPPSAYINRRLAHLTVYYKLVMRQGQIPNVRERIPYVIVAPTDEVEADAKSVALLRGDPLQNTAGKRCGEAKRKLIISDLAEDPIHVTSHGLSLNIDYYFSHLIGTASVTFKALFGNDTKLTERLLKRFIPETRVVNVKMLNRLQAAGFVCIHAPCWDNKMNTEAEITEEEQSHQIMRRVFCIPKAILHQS
Experimental: as §1, with “Unless noted otherwise, reactions are initiated via the addition of 6 nM biotinylated poly(dA)-oligo(dT) template/primer to reaction mixtures containing the enzyme, substrate, and compounds of interest. Plates are incubated in a 25 C or 37 C H2O bath and terminated via the addition of 40 μl/reaction of 0.5 M EDTA (pH 8) per well. Reactions are terminated within the time-frame during which substrate incorporation is linear and varied depending upon the enzyme and conditions used, i.e., 30 min. for HCMV polymerase. Ten μl of streptavidin-SPA beads (20 mg/ml in PBS/10% glycerol) are added following termination of the reaction.” left out, “software. […]” for “software.”

| pIC50 (HCMV polymerase) | pIC50 (HSV polymerase) | pIC50 (VZV polymerase) | SMILES |
| --- | --- | --- | --- |
| > 6.51 | 6.36 | 6.68 | O=C(NCc1ccc(Cl)cc1)c1cn2c3c(cc(CCCO)cc3c1=O)OCC2 [Example 3A, N-(4-Chlorobenzyl)-9-(3-hydroxypropyl)-7-oxo-2,3-dihydro-7H-[1,4]oxazino[2,3,4-ij]quinoline-6-carboxamide] |
| 6.32 |  |  | O=C(NCc1ccc(Cl)cc1)c1cn2c3c(cc(CN4CCOCC4)cc3c1=O)OCC2 [Example 1, N-(4-Chlorobenzyl)-9-(4-morpholinylmethyl)-7-oxo-2,3-dihydro-7H-[1,4]oxazino[2,3,4-ij]quinoline-6-carboxamide] |
| 5.92 |  |  | O=C(NCc1ccc(Cl)cc1)c1cn2c3c(cc(C#CCO)cc3c1=O)OCC2 [Example 2, N-(4-Chlorobenzyl)-9-(3-hydroxy-1-propynyl)-7-oxo-2,3-dihydro-7H-[1,4]oxazino[2,3,4-ij]quinoline-6-carboxamide] |
| 5.74 |  |  | CCCc1cc2c3c(c1)c(=O)c(C(=O)NCc1ccc(Cl)cc1)cn3CCO2 [Example 3B, N-(4-Chlorobenzyl)-7-oxo-9-propyl-2,3-dihydro-7H-[1,4]oxazino[2,3,4-ij]quinoline-6-carboxamide] |
